Measurements reported in patent publication EP0110748A1, “Derivatives of phenyl-(3-aminopropyl) ketone, their therapeutical use and process for their preparation” (LABORATOIRE L. LAFON Société anonyme dite:, priority 1982, dated 1984).
Read-outs that look alike come from different tables or passages of the source.

How the values were obtained:
chien anesthésié [1] = experiment: Minimal dose inducing a clear femoral vasodilator action in the anaesthetised dog; format: in vivo; conditions: Canis lupus familiaris, lot de 5 chiens
From the text: (§1) Le tableau I concerne la toxicité chez la souris mâle, d'une part, et la dose minimale induisant chez le chien anesthésié une action vasodilatatrice fémorale nette, d'autre part. La DL-50 I.V. a été déterminée sur des lots de 10 souris mâles; la dose minimale vasodilatatrice a été déterminée sur un lot de 5 chiens servant de témoins par rapport à eux-mêmes et recevant chaque dose de produit à tester toutes les 2,5 heures.

chiens anesthésiés [2] = experiment: Femoral vasodilator action by intravenous infusion in anaesthetised dogs; format: in vivo, chien
Procedure: Deux chiens (poids moyen 12,4 kg) anesthésiés au pento- barbital reçoivent le CRL 41 080 par voie intraveineuse, en perfusion de 6 min, aux doses successives de 2 fois 1 mg/kg, puis 2 et 4 mg/kg toutes les 60 min. Pour comparaison, ces animaux reçoivent en fin d'essai une perfusion de 6 mg/kg I.V. d'un produit de référence connu, le LL 1656 précité.

chiens = experiment: Duration of the vasodilator action, repeated intraduodenal administration in dogs; format: in vivo, chien
Procedure: Trois chiens (poids moyen 11,1 kg) reçoivent le CRL 41 080 par voie intraduodénale à la dose de 5 mg/kg à deux reprises (délai entre les deux administrations : 90 min) puis 6 mg/kg I.D. de LL 1656 et, 2 heures plus tard, une nouvelle administration de 5 mg/kg I.D. de CRL 41 080.

chien anesthésié [3] = experiment: Cardiovascular properties in the anaesthetised dog, I.V. (arterial pressures, heart rate, femoral arterial flow); format: in vivo
From the text: Le tableau II concerne les variations des pressions […]. systolique, diastolique, […]équence cardiaque et du débit artériel fémoral.

[4] = Acute toxicity, DL-50 I.V. in male mice; conditions: mouse, in vivo, iv, lots de 10 souris mâles
From the text: as §1

[5] = Solubility in water (observation on the isolated product); format: physicochemical; conditions: poudre blanche
Procedure: On fait passer entre -5°C et 0°C pendant 2,5 h un courant d'acide chlorhydrique sec au sein d'une solution de 16,8 g (0,10 mole) de 1,3,5-triméthoxybenzène et de 16,6 g (0,10 mole) de 4-hexaméthylèneimino-butyronitrile en solution dans 115 ml de chlorobenzène anhydre. On abandonne la suspension au froid entre 0°C et +4°C une nuit et on extrait le milieu réactionnel par de l'eau. On porte la phase aqueuse au reflux pendant 1 h, on alcalinise par de la soude concentrée et on extrait le précipité par de l'éther diéthylique pour donner 29,8 g d'une huile jaune pale. Cette huile est traitée dans l'éther diéthylique par de l'éthanol chlorhydrique. […] Finst (^Kofler) = 150°C.

chiens anesthésiés [6] = experiment: Vasodilator action by intraduodenal route in anaesthetised dogs; format: in vivo, chien; conditions: voie intraduodénale
From the text: On mesure la pression artérielle, la fréquence cardiaque, le débit artériel fémoral, le débit artériel vertébral, les températures rectale et cutanée.

homme = experiment: Clinical trials in man; format: in vivo; conditions: voie orale (trois gélules par jour de 100 mg) et voie injectable (I.V. ou I.M., une ampoule par jour de 40 mg)
[7] = Antispasmodic properties (no method described)
[8] = intraduodenal, par voie I.D., '-(d)' = pas d'action vasodilatatrice par voie I.D., read-out: dose minimale induisant chez le chien anesthésié une action vasodilatatrice fémorale par voie I.D.
[9] = iv, par voie I.V., read-out: dose minimale induisant chez le chien anesthésié une action vasodilatatrice fémorale par voie I.V.
[10] = 6 mg/kg I.D., after two administrations of CRL 41 080
[11] = I.V., perfusion de 6 min, 2 fois 1 mg/kg puis 2 et 4 mg/kg, deux chiens
[12] = 5 mg/kg I.D., first administration
[13] = 5 mg/kg I.D., second administration
[14] = dose supplémentaire de 5 mg/kg I.D., 2 heures after LL 1656

Q: For `COc1cc(OC)c(C(=O)CCCN2CCCC2)c(OC)c1` [LL 1656, chlorhydratede (2,4,6-triméthoxyphényl)-(3-pyrrolidinopropyl)-cétone, reference compound], which minimal effective dose (chien anesthésié [1]; [8]) is on record?
A: 6 mg/kg

Q: And the minimal effective dose (chien anesthésié [1]; [9])?
A: 5 mg/kg

Q: And the “débit fémoral” value (chiens anesthésiés [2]; perfusion de 6 mg/kg I.V. en fin d'essai, comparison with 1 mg/kg of CRL 41 080)?
A: augmente moins le débit fémoral que 1 mg/kg de CRL 41 080

Q: What about the “débit fémoral” value (chiens; [10]) of the same molecule?
A: augmentation de débit fémoral d'intensité moyenne

Q: And the “time of maximal effect on débit fémoral” value (chiens; [10])?
A: 120 min

Q: And the “Variation 0,25 h après administration Fréquence cardiaque” value (chien anesthésié [3]; 6 mg/kg I.V., 0,25 h après administration)?
A: 0

Q: And the LD50 [4]?
A: 60 ± 2.2 mg/kg

Q: Which “solubilité dans l'eau” value [5] does the source give for `COc1cc(OC)c(C(=O)CCCN2CCCCCC2)c(OC)c1` [CRL 41080, chlorhydratede (2,4,6-triméthoxyphényl)-(3-hexaméthylèneiminopropyl)-cétone] here?
A: soluble dans l'eau

Q: And the “débit vertébral” value (chiens anesthésiés [6]; doses successives 0,5 - 10 mg/kg)?
A: il semble que le débit vertébral soit diminué, mais cet effet n'est pas statistiquement significatif

Q: And the “débit fémoral” value (chiens anesthésiés [6]; doses successives 0,5 - 10 mg/kg, quatre chiens)?
A: augmente nettement le débit fémoral à partir de la dose de 5 mg/kg

Q: And the “durée de l'effet sur le débit fémoral” value (chiens anesthésiés [6]; à partir de 5 mg/kg)?
A: plus d'une heure

Q: And the minimal effective dose (chien anesthésié [1]; [8])?
A: 5 mg/kg

Q: What about the minimal effective dose (chien anesthésié [1]; [9]) of the same molecule?
A: 1 mg/kg

Q: And the “résultats des essais cliniques chez l'homme” value (homme)?
A: bons résultats

Q: What about the “débit fémoral” value (chiens anesthésiés [2]; [11]) of the same molecule?
A: le débit fémoral augmente pendant la durée de la perfusion dès 1 mg/kg

Q: What about the “pression artérielle, fréquence cardiaque” value (chiens anesthésiés [2]; [11]) of the same molecule?
A: ne modifie pas la pression artérielle ni la fréquence cardiaque

Q: What about the “autres paramètres mesurés” value (chiens; [12]) of the same molecule?
A: ne sont pas modifiés

Q: What about the “time at which the effect on débit fémoral has disappeared” value (chiens; [12]) of the same molecule?
A: 120 min

Q: And the “time at which the effect on débit fémoral has lost half of its intensity” value (chiens; [12])?
A: 60 min

Q: What about the “time of maximal effect on débit fémoral” value (chiens; [12]) of the same molecule?
A: 30 min

Q: And the “débit fémoral” value (chiens; 5 mg/kg I.D., first administration, trois chiens)?
A: augmente le débit fémoral

Q: What about the “débit vertébral” value (chiens; 5 mg/kg I.D., repeated) of the same molecule?
A: ne diminue pas le débit vertébral

Q: What about the “persistence of the effect on débit fémoral” value (chiens; [13]) of the same molecule?
A: encore présent à 120 min

Q: And the “time of maximal effect on débit fémoral” value (chiens; [13])?
A: 30 min

Q: What about the “débit fémoral” value (chiens; 5 mg/kg I.D., second administration (90 min after the first)) of the same molecule?
A: effet plus intense sur le débit fémoral

Q: And the “débit fémoral” value (chiens; [14])?
A: n'augmente pas davantage le débit fémoral

Q: And the “pression artérielle, fréquence cardiaque” value (chiens; [14])?
A: entraîne une hypotension et une bradycardie

Q: What about the “Variation 0,25 h après administration P.A. systolique” value (chien anesthésié [3]; 1 mg/kg I.V., 0,25 h après administration) of the same molecule?
A: 0

Q: What about the “Variation 0,25 h après administration P.A. moyenne” value (chien anesthésié [3]; 2 mg/kg I.V., 0,25 h après administration) of the same molecule?
A: 0

Q: And the propriétés antispasmodiques [7]?
A: ne présente pas les propriétés antispasmodiques

Q: And the LD50 [4]?
A: 96 ± 3 mg/kg

Q: Which minimal effective dose (chien anesthésié [1]; [9]) does the source give for `COc1cc(OC)c(C(=O)CCCN2CCCCC2)c(OC)c1` [LL 1647, chlorhydratede (2,4,6-triméthoxyphényl)-(3-pipéridi-nopropyl)-cétone] here?
A: 5 mg/kg

Q: What about the LD50 [4] of the same molecule?
A: 68 ± 4 mg/kg
